Several values for one entry are separate records, joined by “and”; a condition that tells them apart may be missing. Identical values can stand only once.
Tested on: Ca^2+ channel (L, verapamil site)
Test: Equilibrium binding competition on type-L calcium channels, verapamil site ([3H](-)D 888 displacement)
Parameters: species or system rat
Conditions: for Mean % of binding / % of binding / Mean % of inhibition: Argireline 1.0%, magnesium gluconate 1 × 10^−4 M, combination 1 × 10^−4 M/1.0%; for % of binding: individual determinations, specific binding of 0.5 nM (3H)(-)D 888, rat cerebral cortex homogenates; for Mean % of inhibition: inhibition of specific binding
Experimental: The studies were performed using rat cerebral cortex homogenates (isolated membranes having type-L calcium channels at their surface).
The principle of an equilibrium displacement experiment includes measuring the specific binding at equilibrium, of a given concentration of radiolabelled ligand in the presence of a variable and increasing concentration of cold ligand. The cold ligand enters into competition with the radioactive ligand for its binding to the receptor; this is why this may be termed binding competition at equilibrium.
The experimental conditions according to the protocol described by Reynolds, I. J. et al., J. Pharmacol. Exp. Ther., vol. 237, p.
D 888 and D 600 are the reference molecules specific for the type-L calcium channels, verapamil site.
The specific binding of a ligand (labelled D 888) to the receptors (type-L calcium channels, verapamil site) is defined as the difference between the total binding and the […] determined in the presence of an excess of cold ligand. The results are expressed as a percentage of specific binding and as a percentage of inhibition of specific binding in the presence of the test compounds (Argireline®).

Acetyl glutamyl-glutamyl-methionyl-glutaminyl-arginyl-arginylamide (Ac-EEMQRR-NH2) [Argireline ®, supplied at 0.05% in water]
Mean % of binding: 96.1% | mean percentage of inhibition (Argireline at 5%): 36% | mean percentage of inhibition (Argireline at 10%): 52% | % of binding: 95.1% and 93.1% and 99.9% | Mean % of inhibition: 4%

Magnesium gluconate
Mean % of binding: 94.0% | % of binding: 93.8% and 95.2% and 93.0% | Mean % of inhibition: 6% | effect on the type-L calcium channels, verapamil site (in words) (used alone at concentrations of 1×10^−6 M to 1×10^−4 M): moderate effects

— patent publication US7071167B2 (L'Oreal, priority 2002, dated 2006)
